Assay results reported in ChEMBL document CHEMBL1201862, “PubChem BioAssay data set” (2004).
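Cultured in 96-well plates, cells were exposed to test compound for 48 hours across five concentrations. GI50 is the concentration that inhibits growth by half.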 Activity calls are given as the source filed them. Rule as the data show it: active = GI50 up to about 1.1 µM and inactive = higher.

Columns and labels:
Test in all cases: NCI anticancer screen, dose series, 48 h
[1] = tested on: MDA-N
[2] = tested on: SN12C
[3] = tested on: OVCAR-3
[4] = tested on: OVCAR-4
[5] = tested on: NCI/ADR-RES
[6] = tested on: SW-620
[7] = tested on: Hs-578T
[8] = tested on: SK-MEL-2
[9] = tested on: SF-295
[10] = tested on: U-251
[11] = tested on: HL-60
[12] = tested on: NCI-H460
[13] = tested on: A498
[14] = tested on: MDA-MB-435
[15] = tested on: LOX IMVI
[16] = tested on: HCC 2998
[17] = tested on: K562
[18] = tested on: CCRF-CEM
[19] = tested on: HOP-92
[20] = tested on: CAKI-1

SMILES: Cc1cc(C)c2c(-c3ccccc3)cc(=O)[nH]c2c1
- GI50 [1]: > 100 µM (inactive)
- GI50 [2]: > 100 µM (inactive)
- GI50 [3]: > 100 µM (inactive)
- GI50 [4]: > 100 µM (inactive)
- GI50 [5]: > 100 µM (inactive)
- GI50 [6]: > 100 µM (inactive)
- GI50 [7]: > 100 µM (inactive)
- GI50 [8]: > 100 µM (inactive)
- GI50 [9]: > 100 µM (inactive)
- GI50 [10]: > 100 µM (inactive)
- GI50 [11]: > 100 µM (inactive)
- GI50 [12]: > 100 µM (inactive)
- GI50 [13]: > 100 µM (inactive)
- GI50 [14]: > 100 µM (inactive)
- GI50 [15]: > 100 µM (inactive)
- GI50 [16]: > 100 µM (inactive)
- GI50 [17]: > 100 µM (inactive)
- GI50 [18]: > 100 µM (inactive)

SMILES: C[C@H](N)C(=O)Nc1ccc(-c2nc3ccccc3s2)cc1
- GI50 [1]: 18.7 µM (inactive)
- GI50 [2]: 24.8 µM (inactive)
- GI50 [3]: 18.3 µM (inactive)
- GI50 [4]: 16.4 µM (inactive)
- GI50 [5]: 28.6 µM (inactive)
- GI50 [6]: 17.2 µM (inactive)
- GI50 [7]: 37.8 µM (inactive)
- GI50 [19]: 26.4 µM (inactive)
- GI50 [8]: 28.6 µM (inactive)
- GI50 [9]: 18.7 µM (inactive)
- GI50 [10]: 16.9 µM (inactive)
- GI50 [12]: 16.9 µM (inactive)
- GI50 [13]: 30.1 µM (inactive)
- GI50 [14]: 16.9 µM (inactive)
- GI50 [20]: 17.1 µM (inactive)
- GI50 [15]: 19.1 µM (inactive)
- GI50 [16]: 20.9 µM (inactive)
- GI50 [17]: 21.5 µM (inactive)
- GI50 [18]: 10.2 µM (inactive)

SMILES: CCOP(=O)(Nc1ccccc1P(=O)(OCC)OCC)OCC
- GI50 [1]: > 100 µM (inactive)
- GI50 [3]: > 100 µM (inactive)
- GI50 [4]: > 100 µM (inactive)
- GI50 [5]: > 100 µM (inactive)
- GI50 [6]: > 100 µM (inactive)
- GI50 [7]: > 100 µM (inactive)
- GI50 [19]: > 100 µM (inactive)
- GI50 [8]: > 100 µM (inactive)
- GI50 [9]: > 100 µM (inactive)
- GI50 [10]: > 100 µM (inactive)
- GI50 [12]: > 100 µM (inactive)
- GI50 [13]: > 100 µM (inactive)
- GI50 [14]: > 100 µM (inactive)
- GI50 [20]: > 100 µM (inactive)
- GI50 [16]: > 100 µM (inactive)
- GI50 [17]: > 100 µM (inactive)

SMILES: CC(=O)NC1C(OC(C)C(=O)NC(C(=O)NC(CCC(=O)NCCCNC2c3ccccc3Nc3cccc([N+](=O)[O-])c32)C(N)=O)C(C)C)C(O)C(CO)OC1(C)OCc1ccccc1 (stereo unspecified)
- GI50 [1]: 0.634 µM (active)
- GI50 [2]: 0.822 µM (active)
- GI50 [3]: 0.946 µM (active)
- GI50 [4]: 1.78 µM (inactive)
- GI50 [5]: 2.02 µM (inactive)
- GI50 [6]: 0.291 µM (active)
- GI50 [7]: 1.64 µM (inactive)
- GI50 [8]: 1.22 µM (inactive)
- GI50 [9]: 1.62 µM (inactive)
- GI50 [10]: 1.39 µM (inactive)
- GI50 [12]: 0.108 µM (active)
- GI50 [13]: 1.93 µM (inactive)
- GI50 [14]: 0.579 µM (active)
- GI50 [20]: 1.33 µM (inactive)
- GI50 [15]: 1.47 µM (inactive)
- GI50 [16]: 0.671 µM (active)
- GI50 [17]: 0.363 µM (active)
- GI50 [18]: 1.02 µM (active)

SMILES: C[As+](C)(c1ccc(Br)c([N+](=O)[O-])c1)c1ccc(Br)c([N+](=O)[O-])c1
- GI50 [1]: > 100 µM (inactive)
- GI50 [2]: > 100 µM (inactive)
- GI50 [3]: > 100 µM (inactive)
- GI50 [4]: > 100 µM (inactive)
- GI50 [5]: > 100 µM (inactive)
- GI50 [6]: > 100 µM (inactive)
- GI50 [7]: > 100 µM (inactive)
- GI50 [19]: > 100 µM (inactive)
- GI50 [8]: > 100 µM (inactive)
- GI50 [9]: > 100 µM (inactive)
- GI50 [10]: > 100 µM (inactive)
- GI50 [12]: > 100 µM (inactive)
- GI50 [13]: > 100 µM (inactive)
- GI50 [14]: > 100 µM (inactive)
- GI50 [20]: > 100 µM (inactive)
- GI50 [15]: > 100 µM (inactive)
- GI50 [16]: > 100 µM (inactive)
- GI50 [17]: > 100 µM (inactive)

SMILES: O=c1[nH][nH]c(=O)n1Cc1cccc(Cn2c(=O)[nH][nH]c2=O)c1
- GI50 [1]: > 100 µM (inactive)
- GI50 [2]: > 100 µM (inactive)
- GI50 [3]: > 100 µM (inactive)
- GI50 [4]: > 100 µM (inactive)
- GI50 [5]: > 100 µM (inactive)
- GI50 [6]: > 100 µM (inactive)
- GI50 [7]: > 100 µM (inactive)
- GI50 [8]: > 100 µM (inactive)
- GI50 [10]: > 100 µM (inactive)
- GI50 [11]: > 100 µM (inactive)
- GI50 [12]: > 100 µM (inactive)
- GI50 [13]: > 100 µM (inactive)
- GI50 [14]: > 100 µM (inactive)
- GI50 [20]: > 100 µM (inactive)
- GI50 [15]: > 100 µM (inactive)
- GI50 [16]: > 100 µM (inactive)
- GI50 [17]: > 100 µM (inactive)
- GI50 [18]: > 100 µM (inactive)

SMILES: CC(C)=CCc1cc(/C=C/C(=O)O)cc(CC=C(C)C)c1O [ARTEPILLIN]
- GI50 [1]: > 100 µM (inactive)
- GI50 [2]: > 100 µM (inactive)
- GI50 [3]: > 100 µM (inactive)
- GI50 [4]: > 100 µM (inactive)
- GI50 [5]: > 100 µM (inactive)
- GI50 [6]: > 100 µM (inactive)
- GI50 [7]: > 100 µM (inactive)
- GI50 [19]: 19.7 µM (inactive)
- GI50 [8]: > 100 µM (inactive)
- GI50 [9]: > 100 µM (inactive)
- GI50 [10]: > 100 µM (inactive)
- GI50 [11]: > 100 µM (inactive)
- GI50 [12]: > 100 µM (inactive)
- GI50 [13]: > 100 µM (inactive)
- GI50 [14]: > 100 µM (inactive)
- GI50 [20]: > 100 µM (inactive)
- GI50 [15]: 43.7 µM (inactive)
- GI50 [17]: 76 µM (inactive)
- GI50 [18]: > 100 µM (inactive)

SMILES: c1cnn(C23C4C5C6C4C2C6C53)c1 (stereo unspecified)
- GI50 [1]: > 100 µM (inactive)
- GI50 [2]: > 100 µM (inactive)
- GI50 [5]: > 100 µM (inactive)
- GI50 [6]: > 100 µM (inactive)
- GI50 [7]: > 100 µM (inactive)
- GI50 [8]: > 100 µM (inactive)
- GI50 [9]: > 100 µM (inactive)
- GI50 [10]: > 100 µM (inactive)
- GI50 [11]: > 100 µM (inactive)
- GI50 [12]: > 100 µM (inactive)
- GI50 [13]: > 100 µM (inactive)
- GI50 [14]: > 100 µM (inactive)
- GI50 [15]: > 100 µM (inactive)
- GI50 [16]: > 100 µM (inactive)
- GI50 [17]: > 100 µM (inactive)
- GI50 [18]: > 100 µM (inactive)

SMILES: COc1cc(OC)cc(-n2c(N)c(-c3nc4ccccc4s3)c3ccc([N+](=O)[O-])cc3c2=O)c1
- GI50 [1]: > 100 µM (inactive)
- GI50 [2]: 18.4 µM (inactive)
- GI50 [4]: 17 µM (inactive)
- GI50 [5]: 24.9 µM (inactive)
- GI50 [6]: > 100 µM (inactive)
- GI50 [7]: 27.7 µM (inactive)
- GI50 [19]: 3.27 µM (inactive)
- GI50 [9]: 28.5 µM (inactive)
- GI50 [10]: 34.1 µM (inactive)
- GI50 [11]: 0.208 µM (active)
- GI50 [12]: 32.7 µM (inactive)
- GI50 [13]: 28.4 µM (inactive)
- GI50 [14]: > 100 µM (inactive)
- GI50 [20]: 31.8 µM (inactive)
- GI50 [15]: > 100 µM (inactive)
- GI50 [16]: 84.5 µM (inactive)
- GI50 [17]: 13.4 µM (inactive)
- GI50 [18]: 69.7 µM (inactive)

SMILES: CCOC(=O)c1c(N2CCOCC2)[nH]c(=O)c(C(c2ccc(Cl)c([N+](=O)[O-])c2)c2c(O)c(C(=O)OCC)c(N3CCOCC3)[nH]c2=O)c1O
- GI50 [1]: 26.1 µM (inactive)
- GI50 [2]: 20.5 µM (inactive)
- GI50 [3]: 17.2 µM (inactive)
- GI50 [4]: 42.8 µM (inactive)
- GI50 [5]: 39 µM (inactive)
- GI50 [6]: 23.4 µM (inactive)
- GI50 [7]: > 100 µM (inactive)
- GI50 [19]: 23.9 µM (inactive)
- GI50 [9]: > 100 µM (inactive)
- GI50 [10]: 19.6 µM (inactive)
- GI50 [12]: > 100 µM (inactive)
- GI50 [13]: > 100 µM (inactive)
- GI50 [14]: 30.6 µM (inactive)
- GI50 [20]: 82.6 µM (inactive)
- GI50 [15]: 19.5 µM (inactive)
- GI50 [16]: > 100 µM (inactive)
- GI50 [17]: 30.3 µM (inactive)
- GI50 [18]: 4.76 µM (inactive)

SMILES: C(=C\c1cc(-c2ccc3ccccc3n2)nc2ccc3ccccc3c12)/c1ccc2ccccc2n1
- GI50 [1]: > 100 µM (inactive)
- GI50 [2]: > 100 µM (inactive)
- GI50 [3]: > 100 µM (inactive)
- GI50 [4]: > 100 µM (inactive)
- GI50 [5]: > 100 µM (inactive)
- GI50 [6]: > 100 µM (inactive)
- GI50 [7]: 29.4 µM (inactive)
- GI50 [9]: > 100 µM (inactive)
- GI50 [10]: > 100 µM (inactive)
- GI50 [11]: > 100 µM (inactive)
- GI50 [12]: > 100 µM (inactive)
- GI50 [13]: > 100 µM (inactive)
- GI50 [14]: > 100 µM (inactive)
- GI50 [20]: > 100 µM (inactive)
- GI50 [15]: > 100 µM (inactive)
- GI50 [16]: > 100 µM (inactive)
- GI50 [17]: > 100 µM (inactive)
- GI50 [18]: > 100 µM (inactive)
